{"source": "patent US6627218B2", "about": "“Cationic amphiphiles of cholesterol” (The University of Tennessee Research Foundation, priority 1991, dated 2003)", "key": {"[1]": {"target": "protein kinase C (PKC)", "assay": "Mixed micelle assay of protein kinase C", "assay_type": "biochemical, rat", "settings": "pure cationic cholesterol derivative; diolefin, phosphatidyl serine and Ca2+ stimulated PKC; read-out: PKC Inhibition IC50", "experimental": "As rapidly as possible, brains for 25 Sprague-Dawley rats (150-200 g) were removed, washed with 100 ml of 20 mM TRIS, 1 mM EDTA, 1 mM EGTA, pH 7.5, and homogenized in 150 ml of ice cold 20 mM TRIS, 10 mM EGTA, 2 mM EDTA, 10 mM DTT, 0.25 M sucrose, 2 mM PMSF and 100 μg/ml leupeptin, pH 7.5. The homogenate was immediately centrifuged at 100,000 g for 40 minutes at 4° C. in a Beckman Ti 50.2 rotor. The supernatant was applied to a 2.5×20 cm column of DEAE Sepharose (fast flow) containing 60 of resin equilibrated with 20 mM TRIS, 1 mM EDTA, 1 mM DTT, pH 7.5 (buffer A). The column was washed with 300 ml of buffer A and an additional 200 ml of buffer A containing 0.03 M KCl. Protein kinase C was eluted with a 500 ml continuous KCl gradient (0.03-0.3 M KCl). Fractions of 5 ml volumes were collected. Fractions showing calcium and phospholipid dependence were pooled; the salt concentration was adjusted to 1.5 KCl with the appropriate quantity of solid KCl. The crude sample containing 1.5 M KCl was stirred for 15 minutes and subsequently loaded onto a 1×10 cm column containing 9 ml Phenyl sepharose equilibrated with 1.5 M KCl in 20 mM TRIS, 0.5 mM EGTA, 1 mM DTT, pH 7.5 (buffer B). The column was washed with 90 ml of buffer B containing 1.5 M KCl. PKC was eluted with a 100 ml continuous KCl gradient (1.5-0 M KCl). Fractions of 3 ml volumes were collected. The column was washed with an additional 50 ml of buffer B. Most of the enzyme activity eluted during this stage. Fractions showing calcium and phospholipid dependence were pooled and concentrated to 4 ml using an Amicon ultrafiltration cell fitted with a YM-10 filter. The concentrated sample was loaded onto a 2.5×100 cm column containing 400 ml of Sephacryl S-200 HR beads equilibrated with buffer B containing 10% glycerol (buffer C). Fractions of 3 ml volumes were collected. About 150 ml of buffer was run through; PKC eluted very close to the column void volume. The fractions showing calcium and phospholipid dependence were pooled and loaded onto a 0.5×5 cm column containing 2.5 ml polylysine agarose equilibrated with buffer C. PKC was eluted with a 40 ml continuous KCl gradient (0-0.8 M KCl). Fractions of 1 ml volumes were collected. The first few active fractions were contaminated. The uncontaminated fractions were pooled, concentrated, and diluted with buffer C to remove the high salt content. After reconcentrating, the sample was divided into working portions, frozen in liquid nitrogen and stored at −80° C. Full activity was regained after rapid thawing. Trace impurities (116 k, 66 k, and 50 k Mr) could still be detected when the gel was silver stained heavily. The enzyme gave a specific activity of 200 nmoles phosphate incorporated per minute per milligram of protein when assayed for histone phosphorylation using the Triton mixed micelle assay with 6.5 mole % phosphatidylserine, 2.5 mole % DAG and 100 μM calcium present. Specific activities ranging from 30 nmoles/min/mg to 600 nmoles/min/mg have been observed for PKC using the Triton mixed micelle assay under the same conditions.\nPhosphatidylserine and 1,2-diolefin with and without additive were dissolved in a solution of chloroform/methanol (2:1, v/v). Solvent was evaporated with a stream of nitrogen and last traces removed using a vacuum desiccator at 40° C. The lipid films were then solubilized by the addition of 3% Triton X-100, vortexed vigorously for 30 seconds and then incubated at 30° C. for 10 minutes to allow for equilibration. […]"}, "[2]": {"test_system": "mouse L929 cells", "assay": "Transfection of L929 cells with pUCSV2CAT, CAT activity", "assay_type": "cell-based", "set-up": "Relative CAT Activity: scale not given here", "settings": "for Relative CAT Activity: dispersion with co-lipid DOPE, plasmid pUCSV2CAT, L929 cells", "experimental": "(§1) The cationic cholesterol derivatives of the invention were mixed with a phospholipid co-lipid in chloroform solution at different molar ratios. The solvent was removed by evaporation under a stream of N2 gas and desiccated in vacuo for at least 30 minutes. The dry lipid film was hydrated in 20 mM Hepes buffer, pH 7.8, overnight. The suspension was sonicated in a bath-type sonicator (Laboratory Supplies, Hicksville, N.Y.) to generate small particle dispersions (average diameter=150 nm). The co-lipid is phosphatidylethanolamine.\nPlasmid pUCSV2CAT (approximately 5kb in size) containing the structural gene of E. coli chloramphenicol acetyl transferase (CAT) driven by the SV40 virus early promoter was used as a model for the polyanions to be delivered by the cationic lipid dispersions. DNA was mixed with the cationic lipid dispersions of the invention in 1 ml serum-free M199 medium or McCoy's medium to form DNA/lipid complex. Cultured mammalian cells of about 80-100% confluency in a 6-well plate were washed once with serum-free medium. The DNA/lipid complex was added to the washed cells which were incubated at 37° C. for 5 hours. The cells were washed again and the serum-containing medium was added. Cells were harvested 30-72 hours later and extracted for cellular proteins. The CAT activity in the extracted protein was measured by using either [^14C] chloramphenicol or [^3H] acetyl CoA as a radiolabeled substrate. One activity unit of CAT is defined as nmole of radiolabeled substrate converted to the radiolabeled product in one minute. Protein content in the cell extracts was measured by the Bradford (BIORAD) assay.\nPlasmid DNA, pUCSV2CAT, was used as a model compound for polyanions because it contains a structural gene for CAT. The efficiency of intracellular delivery can be readily assayed by the expression of CAT activity in the extracted proteins of the treated cells. Table 1 lists the CAT activity of mouse L929 cells which have been transfected with this plasmid DNA as mediated by various cationic lipid dispersions. In addition, the inhibitory activity of the pure cationic cholesterol derivatives on diolefin, phosphatidyl serine (PS), and Ca^2+stimulated protein kinase C was also measured. This activity was expressed as an IC50 which is the concentration at which 50% of PKC activity was inhibited."}, "[3]": {"assay": "Formation of homogenous dispersion by sonication", "assay_type": "physicochemical", "settings": "sonication in low ionic strength buffer", "experimental": "as §1\nNone of the cationic cholesterol derivatives by themselves form stable homogenous dispersion by sonication in a low ionic strength buffer. When stable dispersions are desired, it was necessary to add an acidic or neutral phospholipid to form mixed lipid dispersion. […] In the case of compound XIV, a minimal ration of phosphatidyl choline (PC) or phosphatidyl ethanolamine (PE) to XIV=4:6 is required. Such non-cationic lipid used in the dispersion is called co-lipid."}, "[4]": {"test_system": "mouse L929 cells", "assay": "Transfection of L929 cells with pUCSV2CAT, CAT activity", "assay_type": "cell-based", "settings": "molar ratio 1:1, L929 cells (FIG. 4)"}}, "note": "Counter-ions that a name gives are not always drawn.", "data": [{"compound": "CC(C)CCCC(C)C1CCC2C3CC=C4CC(OC(=O)CCC(=O)NCC[N+](C)(C)C)CCC4(C)C3CCC12C", "note": "(stereo not drawn) [IX, Cholesteryl-3β-Oxysuccinamidoethylenetrimethylammonium Iodide]", "values": [{"measurement": "IC50", "setting": "[1]", "result": 59, "unit": "µM"}, {"measurement": "Relative CAT Activity", "setting": "[2]", "result": 50}]}, {"compound": "CC(C)CCCC(C)C1CCC2C3CC=C4CC(OC(=O)CCC(=O)OCCN(C)CC[N+](C)(C)C)CCC4(C)C3CCC12C", "note": "(stereo not drawn) [XIII, 2-{[2-Trimethylammonio]ethylmethylamino}ethyl-Cholesteryl-3β-Oxysuccinate Iodine Salt]", "values": [{"measurement": "IC50", "setting": "[1]", "result": 20, "unit": "µM"}]}, {"compound": "CC(C)CCCC(C)C1CCC2C3CC=C4CC(C(=O)NCCN(C)C)CCC4(C)C3CCC12C", "note": "(stereo not drawn) [Compound III, Cholesteryl-3β-Carboxyamidoethylenedimethylamine]", "values": [{"measurement": "IC50", "setting": "[1]", "result": 258, "unit": "µM"}, {"measurement": "Relative CAT Activity", "setting": "[2]", "result": 18}, {"measurement": "melting point", "result": "167 to 169", "unit": "°C"}]}, {"compound": "CC(C)CCCC(C)C1CCC2C3CC=C4CC(C(=O)NCC[N+](C)(C)C)CCC4(C)C3CCC12C", "note": "(stereo not drawn) [IV, Cholesteryl-3β-Carboxyamidoethylenetrimethylammonium Iodide]", "values": [{"measurement": "IC50", "setting": "[1]", "result": 12, "unit": "µM"}]}, {"compound": "CC(C)CCCC(C)C1CCC2C3CC=C4CC(OC(=O)CCC(=O)OCCN(C)CCN(C)C)CCC4(C)C3CCC12C", "note": "(stereo not drawn) [XII, 2-{[2-(dimethylamino)ethyl]methylamino}ethyl-Cholesteryl-3β-Oxysuccinate]", "values": [{"measurement": "IC50", "setting": "[1]", "result": 164, "unit": "µM"}, {"measurement": "Relative CAT Activity", "setting": "[2]", "result": 19}, {"measurement": "melting point", "result": "50 to 52", "unit": "°C"}]}, {"compound": "3β[N-(polyethyleneimine)-carbamoyl]cholesterol [XV]", "values": [{"measurement": "Relative CAT Activity", "setting": "[2]", "result": 11}]}, {"compound": "CC(C)CCCC(C)C1CCC2C3CC=C4CC(C(=O)OC(CN(C)C)CN(C)C)CCC4(C)C3CCC12C", "note": "(stereo not drawn) [Compound V, 1,3-Bis-Dimethylamino-2-Propyl-Cholesteryl-3β-Carboxylate]", "values": [{"measurement": "IC50", "setting": "[1]", "result": 643, "unit": "µM"}, {"measurement": "Relative CAT Activity", "setting": "[2]", "result": 2}]}, {"compound": "CC(C)CCCC(C)C1CCC2C3CC=C4CC(OC(=O)CCC(=O)NCCN(C)C)CCC4(C)C3CCC12C", "note": "(stereo not drawn) [VIII, Cholesteryl-3β-oxysuccinamidoethylenedimethylamine]", "values": [{"measurement": "IC50", "setting": "[1]", "result": 191, "unit": "µM"}, {"measurement": "Content of cationic lipid in DOPE dispersion at maximal DNA delivery activity", "setting": "[2]; DOPE co-lipid, L929 cells (FIG. 5)", "result": "20-50%"}, {"measurement": "DNA delivery activity of mixed dispersion", "setting": "[2]; co-lipid DOPE, molar ratio 1:1, L929 cells (FIG. 4)", "result": "only DOPE supported the delivery activity"}, {"measurement": "Relative CAT Activity", "setting": "[2]", "result": 100}, {"measurement": "Minimal ratio of co-lipid (PC or PE) to cationic lipid required to form a uniform dispersion", "setting": "[3]", "result": "1 part of PC or PE and 9 parts of compound VIII"}, {"measurement": "DNA delivery activity of mixed dispersion", "setting": "[4]; acidic co-lipids PS and PG", "result": "None of the acidic lipids, such as PS and phosphatidylglycerol (PG) showed any activity"}, {"measurement": "DNA delivery activity of mixed dispersion", "setting": "[4]; other neutral co-lipids DOPC, N-methyl-DOPE, N,N-dimethyl DOPE", "result": "little or no activity"}]}, {"compound": "CC(C)CCCC(C)C1CCC2C3CC=C4CC(C(=O)NCCN)CCC4(C)C3CCC12C", "note": "(stereo not drawn) [Compound VII, Cholesteryl-3β-Carboxyamidoethyleneamine]", "values": [{"measurement": "IC50", "setting": "[1]", "result": 246, "unit": "µM"}]}, {"compound": "CC(C)CCCC(C)C1CCC2C3CC=C4CC(C(=O)OC(CN(C)C)C[N+](C)(C)C)CCC4(C)C3CCC12C", "note": "(racemic) [Compound VI, 1-Dimethylamino-3-Trimethylammonio-DL-2-Propyl Cholesteryl Carboxylate Iodide Salt]", "values": [{"measurement": "IC50", "setting": "[1]", "result": 11, "unit": "µM"}]}, {"compound": "CC(C)CCCC(C)C1CCC2C3CC=C4CC(OC(=O)CCC(=O)OC(CN(C)C)C[N+](C)(C)C)CCC4(C)C3CCC12C", "note": "(racemic) [Compound XI, 1-Dimethylamino-3-Trimethylammonio-DL-2-Propyl-Cholesteryl-3β-Oxysuccinate Iodide Salt]", "values": [{"measurement": "IC50", "setting": "[1]", "result": 15, "unit": "µM"}]}, {"compound": "CC(C)CCCC(C)C1CCC2C3CC=C4CC(OC(=O)CCC(=O)OC(CN(C)C)CN(C)C)CCC4(C)C3CCC12C", "note": "(stereo not drawn) [Compound X, 1,3-Bi-Dimethylamino-2-Propyl-Cholesteryl-3β-Oxysuccinate]", "values": [{"measurement": "IC50", "setting": "[1]", "result": 408, "unit": "µM"}, {"measurement": "Relative CAT Activity", "setting": "[2]", "result": 0.5}]}, {"compound": "CC(C)CCCC(C)C1CCC2C3CC=C4CC(OC(=O)NCCN(C)C)CCC4(C)C3CCC12C", "note": "(stereo not drawn) [Compound XIV, 3β[N-(N′,N′-dimethylaminoethane)-carbamoyl]cholesterol]", "values": [{"measurement": "IC50", "setting": "[1]", "result": "> 1000", "unit": "µM"}, {"measurement": "Relative CAT Activity", "setting": "[2]", "result": 75}]}]}
